These results are taken from patent publication US10815229B1, “Benzenesulfonamide compounds and their use as therapeutic agents” (Xenon Pharmaceuticals Inc., priority 2016, dated 2020).

The target in one assay is NaV1.6 (Homo sapiens (Human), UniProt Q9UQD0). The assay can be described thus: Sodium Influx Assay (Flux), NaV1.6. Particulars: read-out: Flux NaV1.6 IC50; Trex HEK293 cells, ANG2 dye; arithmetic mean.
The next assay deals with NaV1.1 (Homo sapiens (Human), UniProt P35498). The assay can be described thus: Sodium Influx Assay (Flux), NaV1.1. It is filed as cell-based. As to conditions: Trex HEK293 cells, ANG2 dye; arithmetic mean.

For orientation: IC50 means the midpoint of a concentration-inhibition curve. As to “(S)-2-fluoro-4-((1-(2-hydroxybenzyl)-pyrrolidin-3-yl)(methyDamino)-5-methyl-N-(thiazol-4-yl)benzenesulfonamide [Example 113]”, the IC50 on NaV1.6 turned out to be 0.258 µM; against NaV1.1, 17.9 µM.
